The values that follow come from patent publication US9149519B2, “Chimeric human immunodeficiency virus type 1 (HIV-1) with enhanced dendritic cell and macrophage tropism comprising the simian immunodeficiency virus (SIV) minimal Vpx packaging domain” (New York University, priority 2012, dated 2015).

Assay [1] deals with IFN-β mRNA. In words: IFN-β mRNA induction in infected MDDC by qRT-PCR. The assay is classed as cell-based, human. To be noted: AZT 25 μM or Raltegravir 10 μM added prior to infection.
For assay [2], the system named is resting CD4+ T cells. To be noted: Siliciano et al. 2012; cited from earlier work.
Assay [3] has as its system MDDC. It counts as cell-based, human.
The test system of assay [4] is MDM. The assay is classed as cell-based, human.
Assay [5] has as its system MDM and MDDC. Briefly: Infectivity on MDM and MDDC (summary statements). It counts as cell-based, human. Particulars: accessory protein provided in trans.

As for `Cc1cn([C@H]2C[C@H](N=[N+]=[N-])[C@@H](CO)O2)c(=O)[nH]c1=O` [AZT], the “Effect on IFN-β induction by Vpx-containing p6 chimeric virus” value in assay [1] is “blocked”.

Consider `Cc1nnc(C(=O)NC(C)(C)c2nc(C(=O)NCc3ccc(F)cc3)c(O)c(=O)n2C)o1` [Raltegravir], for which the “Effect on IFN-β induction by Vpx-containing p6 chimeric virus” value in assay [1] is given as “blocked”.

`O=C(CCCCCCC(=O)Nc1ccccc1)NO` [SAHA, suberoylanilide hydroxamic acid]: the Virus reactivation entry in assay [2] is listed as “induced virus reactivation from resting CD4+ T cells”.

On to “HIV-2rod Vpx: HIV-2 Vpx accessory protein from codon-optimized expression vector”, for which, in assay [3], the “Activity relative to SIVmac239 Vpx” value was “about 8%” and the “Effect of packaged accessory protein on infectivity of the p6 chimeric virus” value (from here on “Effect of packaged accessory protein”) is recorded as “enhanced the infectivity of the p6 chimeric virus”. Also, the “Effect of packaged accessory protein” value in assay [4] is on record as “enhanced the infectivity of the p6 chimeric virus on MDM”. In assay [5], the “Enhancement of MDM and MDDC infection” value is “only slightly enhanced MDM and MDDC infection”.

B1: SIVmac239 Vpx: lentiviral accessory protein, codon-optimized expression vector, SEQ ID NO: 85 (protein)
chain: MSDPRERIPPGNSGEETIGEAFEWLNRTVEEINREAVNHLPRELIFQVWQRSWEYWHDEQGMSPSYVKYRYLCLIQKALFMHCKKGCRCLGEGHGAGGWRPGPPPPPPPGLA
modifications: Simian immunodeficiency virus
B1: the “Effect of packaged accessory protein” value in assay [3] is reported as “enhanced the infectivity of the p6 chimeric virus”; in assay [4], “enhanced the infectivity of the p6 chimeric virus on MDM”.

B2: SIVagm Vpr: SIVagm protein termed Vpr but more similar to Vpx (protein)
chain: MAEGRDSRERRPGWLEIWDLSREPWDEGLRDMVAELNQEAQRHFGRELLFQVWNFCQEEGERNGAPMIERAYRYYRLVQKALFVHFRCGCRRRTPFEPYEERRNGVGGGRDGREPPPGLA
modifications: Simian immunodeficiency virus
notes: SIVagm protein termed Vpr but more similar to Vpx
For the molecule B2, the “Effect of packaged accessory protein” value in assay [3] and in assay [4] was “had no detectable effect” in each case. In addition, in assay [5], the “Enhancement of MDM and MDDC infection” value is recorded as “did not enhance the infection”.
